In brackets after ≈: the same amount, converted by molar mass.
Assay: physchem

NCC(=O)Nc1ccc(-n2nc(C(F)(F)F)cc2-c2ccc3c(ccc4ccccc43)c2)cc1 [AR-12]
solubility (USP biphthalate buffer, pH 3.5, aqueous buffer): 0.18 µg/mL (≈ 0.391 µM) | solubility (USP biphthalate buffer, pH 5, aqueous buffer): 0.07 µg/mL (≈ 0.152 µM) | solubility (USP chloride buffer, pH 1.2, simulated gastric fluid): 65.3 µg/mL (≈ 142 µM) | solubility (USP phosphate buffer, pH 7.4, aqueous buffer): 0.06 µg/mL (≈ 0.13 µM)

From US10039833B2, “Drug delivery system to increase bioavailability” (OHIO STATE INNOVATION FOUNDATION, priority 2013, dated 2018)
